Reference: patent EP0261362A2, “Ubidecarenone as a keloid remedy” (Eisai Co., Ltd., priority 1986, dated 1988)

Key:
Assay type in all cases: in vivo
skin [1] = experiment: Accumulative skin irritation test; settings: Concn. 1%, solvent Squalane
Description: (§1) The safety of percutaneous administration of ubidecarenone is high, and skin irritation due to ubidecarenone is minor. For example, the results of primary skin irritation, accumulative irritation, eyelid irritation, phototoxis, sensitization, photosensitization, and patch tests are as shown in Table l.

skin [2] = experiment: Primary skin irritation test; settings: Concn. 1%, solvent Squalane
Description: as §1

eyelid = experiment: Eyelid irritation test; settings: Concn. 1%, solvent Squalane
Description: as §1

skin [3] = experiment: Patch test; settings: Concn. 1%, solvent Squalane
Description: as §1

skin [4] = experiment: Phototoxis test; settings: Concn. 1% and 10%, solvent Squalane
Description: as §1

skin [5] = experiment: Photosensitization test (Adjuvant & Strip method); settings: Induction: 10% acetone
Description: as §1

skin [6] = experiment: Sensitization test (Adjuvant & Patch method); settings: Induction: 5% acetone
Description: as §1

COC1=C(OC)C(=O)C(C/C=C(\C)CC/C=C(\C)CC/C=C(\C)CC/C=C(\C)CC/C=C(\C)CC/C=C(\C)CC/C=C(\C)CC/C=C(\C)CC/C=C(\C)CCC=C(C)C)=C(C)C1=O [ubidecarenone]
Accumulative skin irritation, result (skin [1]): 0.3
Primary skin irritation, conclusion (skin [2]): lowly irritative
Primary skin irritation, result (skin [2]): 0.1
Eyelid irritation, conclusion (eyelid): lowly irritative
Patch test, conclusion (skin [3]): lowly irritative
Patch test, result (skin [3]): 0/54
Phototoxis, conclusion (skin [4]): lowly phototoxic
Photosensitivization Challenge, result (skin [5]; challenge 0.5 in acetone): 0/5
Photosensitivization Challenge, result (skin [5]; challenge 1 in acetone): 0/5
Photosensitivization Challenge, result (skin [5]; challenge 2 in acetone): 0/5
Photosensitivization Challenge, result (skin [5]; challenge 5 in acetone): 0/5
Photosensitivization Challenge, result (skin [5]; challenge 10% in acetone): 0/5
Photosensitivization Challenge, conclusion (skin [5]; challenge 10% to 0.5 in acetone): lowly photosensitized
Sensitization Challenge, result (skin [6]; challenge 1% in acetone): 0/10
Sensitization Challenge, conclusion (skin [6]; challenge 5% and 1% in acetone): lowly sensitized
Sensitization Challenge, result (skin [6]; challenge 5% in acetone): 0/10
